{
  "source": "patent US20260049071A1",
  "about": "“PROTEIN TYROSINE KINASE INHIBITOR AND MEDICAL USE THEREOF” (BEYANG THERAPEUTICS CO., LTD., priority 2022, published 2026)",
  "key": {"melanin": {"test_system": "melanin", "experiment": "Binding capacity of compounds to melanin", "assay_type": "in vitro ADME", "settings": "Sepia officinalis (cuttlefish), melanin suspension (1 mg/mL); 1 mg/mL melanin suspension in PBS pH 7.4, 2 μM compound, 2 h at 37° C.; read-out: Fu % (percentage of free drug, not bound to melanin)", "method_in_brief": "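Compound at 2 μM final incubated with 1 mg/mL Sepia melanin suspension in PBS pH 7.4 for 2 h at 37 °C with shaking; blank control in PBS with 0.1% BSA. Supernatant concentrations measured by LC-MS/MS; bound fraction from melanin versus control samples, free fraction as 100 − Fb.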"}, "[1]": {"target": "VEGFR2 autophosphorylation (pVEGFR2) in HUVEC cells (Homo sapiens (Human), UniProt P35968)", "sequence (P35968 20-1356)": "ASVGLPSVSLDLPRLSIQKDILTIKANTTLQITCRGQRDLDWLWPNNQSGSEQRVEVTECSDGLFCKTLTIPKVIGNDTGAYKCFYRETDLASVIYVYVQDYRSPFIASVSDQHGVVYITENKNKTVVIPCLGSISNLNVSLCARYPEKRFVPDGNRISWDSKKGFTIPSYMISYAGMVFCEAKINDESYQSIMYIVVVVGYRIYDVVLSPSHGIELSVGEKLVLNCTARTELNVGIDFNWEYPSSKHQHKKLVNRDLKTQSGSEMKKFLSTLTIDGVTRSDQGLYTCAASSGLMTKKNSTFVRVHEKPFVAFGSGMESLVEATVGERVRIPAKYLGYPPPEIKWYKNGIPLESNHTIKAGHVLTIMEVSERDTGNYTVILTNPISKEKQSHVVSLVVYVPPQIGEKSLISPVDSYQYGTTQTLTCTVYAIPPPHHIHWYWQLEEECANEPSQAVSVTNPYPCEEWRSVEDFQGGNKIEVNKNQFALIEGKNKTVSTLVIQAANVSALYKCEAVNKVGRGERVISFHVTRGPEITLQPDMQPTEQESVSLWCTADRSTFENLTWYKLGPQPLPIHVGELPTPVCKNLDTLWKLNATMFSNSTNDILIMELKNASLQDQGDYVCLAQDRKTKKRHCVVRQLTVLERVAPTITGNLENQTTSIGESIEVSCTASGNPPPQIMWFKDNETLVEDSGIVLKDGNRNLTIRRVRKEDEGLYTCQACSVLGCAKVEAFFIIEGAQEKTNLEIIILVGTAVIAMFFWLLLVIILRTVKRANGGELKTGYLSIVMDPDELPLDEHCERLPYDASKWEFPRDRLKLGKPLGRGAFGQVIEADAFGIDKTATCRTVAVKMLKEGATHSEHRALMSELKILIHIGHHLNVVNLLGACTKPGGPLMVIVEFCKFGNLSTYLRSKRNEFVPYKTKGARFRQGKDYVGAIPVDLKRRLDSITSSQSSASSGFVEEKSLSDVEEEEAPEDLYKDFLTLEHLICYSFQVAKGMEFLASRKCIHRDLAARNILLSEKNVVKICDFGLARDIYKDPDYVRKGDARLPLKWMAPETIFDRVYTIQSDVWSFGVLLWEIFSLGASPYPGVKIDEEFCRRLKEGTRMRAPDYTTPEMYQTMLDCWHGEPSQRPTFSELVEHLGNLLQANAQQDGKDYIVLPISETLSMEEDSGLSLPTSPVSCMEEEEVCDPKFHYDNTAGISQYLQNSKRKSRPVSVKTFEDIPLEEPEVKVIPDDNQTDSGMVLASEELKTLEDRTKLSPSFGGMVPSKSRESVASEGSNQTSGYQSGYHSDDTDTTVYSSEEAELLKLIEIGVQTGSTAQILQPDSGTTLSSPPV", "experiment": "Inhibition of VEGF-induced VEGFR2 autophosphorylation in HUVEC cells (ELISA)", "assay_type": "cell-based", "settings": "50 ng/ml human VEGF, compound 1 h", "excerpt": "Vascular endothelial growth factor receptor 2 (VEGFR2) is a primary receptor for VEGF-induced endothelial cell signaling. After ligand binding, VEGFR2 is autophosphorylated and activated. The main function of signaling from VEGFR2 is to induce vascularization during development and after tissue injury, and to bypass blocked blood vessels. Pathologically, VEGF and VEGFR2 are involved in tumor angiogenesis and vascular leakage. They are considered to be main participants in many different cancers and ocular diseases that accompany pathological neovascularization. This assay measured the ability of the compounds to inhibit VEGF-induced VEGFR2 autophosphorylation (pVEGFR2) in HUVEC cells by using ELISA.\nCulture cells in a cell culture flask to reach a fusion degree of 60%-80% before cell inoculation. Dilute the cell suspension to […] with a pre-warmed complete medium. Add 80 μL of the cell suspension to all wells of a 96-well cell plate (Corning-3599); and incubate the plate overnight at 37° C. in the presence of 5% CO2. Dissolve the compound powder to 10 mM with DMSO and store it in a nitrogen cabinet. Compound dilution plate: Add a reference compound Ponatinib or a compound to be tested to a 96 V-well plate (Axygen-WIpp 2280) at concentrations achieved as follows: performing 3-fold gradient dilution starting from 5 mM (5 μL of 10 mM compound solution plus 5 μL of DMSO) for a total of 8 concentration points. […] Transfer 20 μL of the diluted compound from the intermediate plate to a cell plate. Then, incubate the cell plate for 1 h at 37° C. in the presence of 5% CO2. After the compound was treated for 1 h, add 25 μL of 250 ng/ml human VEGF at a final concentration of 50 ng/ml to a 96-well plate; and incubate the plate for 5 min at 37° C. in the presence of 5% CO2, centrifuge the plate for 10 min at 3,000 rpm, remove the medium and wash the cells once with 300 μL of pre-chilled DPBS per well. Then, centrifuge the plate for 10 min at 4,000 rpm, remove DPBS, and add 110 μL of pre-chilled 1× cell lysis buffer per well to the 96-well plate. Shake the plate for 40 min at 4° C. Then, freeze the plate in a refrigerator at −80° C. On the next day, remove the plate from the refrigerator at −80° C., thaw the plate, centrifuge the plate for 10 min at 3500 rpm, and add 100 μL of the supernatant per well to an ELISA plate. Seal the plate and incubate it for 2 h at 37° C. Wash the wells 4 times with 1× wash buffer. Add 100 μL of recombinant detection antibody per well. Seal the plate, incubate the plate for 1 h at 37° C., and repeat the step of plate washing. Add 100 μL of secondary antibody per well. Seal the plate, incubate the plate for 30 min at 37° C., and repeat the step of plate washing. Add 100 μL of TMB (protected from light) per well. Seal the plate, incubate the plate for 30 min at 37° C., and add 100 μL of the stop solution per well. Gently shake for 30 sec, measure the absorbance with a SpectraMax® 340 PC 384 Absorbance Microplate Reader within 30 min, and read an optical density value at 450 nm. Conduct data analysis using XL Fit software:\nConduct curve fitting using the 4 Parameter Logistic Model or Sigmoidal Dose-Response Model:\nX indicating the log value of compound concentration, Y indicating the inhibition ratio (% inhibition), Top indicating the readout of the negative control wells, and bottom indicating the readout of the positive control well."}, "EGFR": {"target": "EGFR (Homo sapiens (Human), UniProt P00533)", "sequence (P00533 25-1210)": "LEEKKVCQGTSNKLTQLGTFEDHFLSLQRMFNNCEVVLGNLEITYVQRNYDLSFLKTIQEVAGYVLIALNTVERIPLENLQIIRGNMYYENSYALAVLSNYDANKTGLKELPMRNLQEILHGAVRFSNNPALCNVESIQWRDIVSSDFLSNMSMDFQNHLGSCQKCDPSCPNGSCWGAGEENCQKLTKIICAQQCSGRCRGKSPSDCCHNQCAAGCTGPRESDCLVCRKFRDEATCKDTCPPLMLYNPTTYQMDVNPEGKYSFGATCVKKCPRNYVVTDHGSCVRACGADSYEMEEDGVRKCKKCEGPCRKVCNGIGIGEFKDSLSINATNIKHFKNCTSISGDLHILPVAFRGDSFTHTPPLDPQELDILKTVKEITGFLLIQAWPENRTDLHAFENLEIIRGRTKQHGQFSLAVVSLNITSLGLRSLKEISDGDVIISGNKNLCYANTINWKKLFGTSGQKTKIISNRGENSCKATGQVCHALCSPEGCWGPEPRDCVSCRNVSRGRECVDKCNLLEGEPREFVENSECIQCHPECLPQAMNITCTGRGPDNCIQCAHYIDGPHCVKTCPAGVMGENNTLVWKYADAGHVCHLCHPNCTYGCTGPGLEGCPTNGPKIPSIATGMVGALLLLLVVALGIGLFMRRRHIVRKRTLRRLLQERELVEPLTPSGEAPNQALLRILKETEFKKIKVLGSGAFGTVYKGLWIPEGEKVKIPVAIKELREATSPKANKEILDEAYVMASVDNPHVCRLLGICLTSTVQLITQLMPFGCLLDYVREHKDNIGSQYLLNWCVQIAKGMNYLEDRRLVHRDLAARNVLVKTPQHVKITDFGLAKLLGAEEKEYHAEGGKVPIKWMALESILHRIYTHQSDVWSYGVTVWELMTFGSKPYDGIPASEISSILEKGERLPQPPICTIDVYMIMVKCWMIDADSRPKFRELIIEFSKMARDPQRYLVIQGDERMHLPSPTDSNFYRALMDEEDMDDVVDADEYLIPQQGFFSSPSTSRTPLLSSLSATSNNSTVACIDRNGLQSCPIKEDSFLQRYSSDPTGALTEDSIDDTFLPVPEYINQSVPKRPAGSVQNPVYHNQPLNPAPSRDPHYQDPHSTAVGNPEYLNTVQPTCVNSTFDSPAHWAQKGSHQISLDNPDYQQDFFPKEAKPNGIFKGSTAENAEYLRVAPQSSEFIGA", "experiment": "Kinase inhibition, Mobility Shift Assay (EGFR)", "assay_type": "biochemical", "method_in_brief": "(§1)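 Mobility shift assay: each kinase preincubated 10 min at room temperature with compound, then reacted with FAM-labeled peptide, MgCl2 and ATP at 28° C. for varying times. Substrate-to-product conversion read on Caliper; % inhibition normalised to no-kinase and DMSO controls, and IC50 fitted.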"}, "KDR (VEGFR2)": {"target": "KDR (VEGFR2) (Homo sapiens (Human), UniProt P35968)", "sequence (P35968 790-1356)": "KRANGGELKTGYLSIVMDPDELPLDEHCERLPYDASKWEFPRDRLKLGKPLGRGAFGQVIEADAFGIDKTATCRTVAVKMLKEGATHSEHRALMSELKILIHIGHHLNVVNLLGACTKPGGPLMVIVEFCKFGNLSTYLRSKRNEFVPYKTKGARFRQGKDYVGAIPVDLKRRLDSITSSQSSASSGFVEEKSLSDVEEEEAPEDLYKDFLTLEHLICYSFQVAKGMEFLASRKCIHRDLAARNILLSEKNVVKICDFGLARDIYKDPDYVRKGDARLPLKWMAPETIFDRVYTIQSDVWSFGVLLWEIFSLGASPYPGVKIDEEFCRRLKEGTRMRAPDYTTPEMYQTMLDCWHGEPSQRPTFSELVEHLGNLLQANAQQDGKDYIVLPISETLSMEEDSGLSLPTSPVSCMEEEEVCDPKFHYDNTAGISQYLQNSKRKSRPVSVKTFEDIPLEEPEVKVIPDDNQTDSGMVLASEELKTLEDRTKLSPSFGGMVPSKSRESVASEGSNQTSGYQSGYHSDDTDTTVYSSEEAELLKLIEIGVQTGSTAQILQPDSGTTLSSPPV", "experiment": "Kinase inhibition, Mobility Shift Assay (VEGFR2)", "assay_type": "biochemical", "method_in_brief": "as §1"}},
  "data": [
    {"smiles": "O=C(NC1CC1)c1ccccc1Sc1ccc2c(/C=C/c3ccc(CCN4CCCC4)cn3)n[nH]c2c1", "note": "[Compound I-55, N-cyclopropyl-2-({3-[(E)-2-{5-[2-(pyrrolidin-1-yl)ethyl]pyridin-2-yl}vinyl]-1H-indazol-6-yl}thio)benzamide]", "values": [
      {"measurement": "fraction unbound at 2 h, 2 μM", "setting": "melanin", "value": "0.01 to 0.05"},
      {"measurement": "IC50", "setting": "[1]", "value": "≤ 1", "unit": "nM"},
      {"measurement": "IC50", "setting": "EGFR", "value": "6000 to 60000", "unit": "nM"},
      {"measurement": "IC50", "setting": "KDR (VEGFR2)", "value": "≤ 1", "unit": "nM"}
    ]},
    {"smiles": "O=C(NC1CC1)c1cc(F)ccc1Sc1ccc2c(/C=C/c3ccc(CN4CCCC4)cn3)n[nH]c2c1", "note": "[Compound I-80, N-cyclopropyl-5-fluoro-2-({3-[(E)-2-{5-[(pyrrolidin-1-yl)methyl]pyridin-2-yl}vinyl]-1H-indazol-6-yl}thio)benzamide]", "values": [
      {"measurement": "fraction unbound at 2 h, 2 μM", "setting": "melanin", "value": "0.01 to 0.05"},
      {"measurement": "IC50", "setting": "[1]", "value": "≤ 1", "unit": "nM"},
      {"measurement": "IC50", "setting": "EGFR", "value": "6000 to 60000", "unit": "nM"},
      {"measurement": "IC50", "setting": "KDR (VEGFR2)", "value": "≤ 1", "unit": "nM"}
    ]},
    {"smiles": "CCN(CC)Cc1ccc(/C=C/c2n[nH]c3cc(Sc4ccccc4C(=O)NC4CC4)ccc23)nc1", "note": "[Compound I-78, N-cyclopropyl-2-({3-[(E)-2-{5-[(diethylamino)methyl]pyridin-2-yl}vinyl]-1H-indazol-6-yl}thio)benzamide]", "values": [
      {"measurement": "fraction unbound at 2 h, 2 μM", "setting": "melanin", "value": "0.01 to 0.05"},
      {"measurement": "IC50", "setting": "[1]", "value": "≤ 1", "unit": "nM"},
      {"measurement": "IC50", "setting": "EGFR", "value": "6000 to 60000", "unit": "nM"},
      {"measurement": "IC50", "setting": "KDR (VEGFR2)", "value": "≤ 1", "unit": "nM"}
    ]},
    {"smiles": "CCNC(=O)c1ccccc1Sc1ccc2c(/C=C/c3ccc(CN(CC)CC)cn3)n[nH]c2c1", "note": "[Compound I-86, 2-({3-[(E)-2-{5-[(diethylamino)methyl]pyridin-2-yl}vinyl]-1H-indazol-6-yl}thio)-N-ethylbenzamide]", "values": [
      {"measurement": "fraction unbound at 2 h, 2 μM", "setting": "melanin", "value": "0.01 to 0.05"},
      {"measurement": "IC50", "setting": "[1]", "value": "≤ 1", "unit": "nM"},
      {"measurement": "IC50", "setting": "EGFR", "value": "6000 to 60000", "unit": "nM"},
      {"measurement": "IC50", "setting": "KDR (VEGFR2)", "value": "≤ 1", "unit": "nM"}
    ]},
    {"smiles": "CCN(CC)Cc1ccc(/C=C/c2n[nH]c3cc(Sc4cc(F)ccc4C(=O)NC4CC4)ccc23)nc1", "note": "[Compound I-83, N-cyclopropyl-2-({3-[(E)-2-{5-[(diethylamino)methyl]pyridin-2-yl}vinyl]-1H-indazol-6-yl}thio)-4-fluorobenzamide]", "values": [
      {"measurement": "fraction unbound at 2 h, 2 μM", "setting": "melanin", "value": "> 0.05"},
      {"measurement": "IC50", "setting": "[1]", "value": "≤ 1", "unit": "nM"},
      {"measurement": "IC50", "setting": "EGFR", "value": "6000 to 60000", "unit": "nM"},
      {"measurement": "IC50", "setting": "KDR (VEGFR2)", "value": "≤ 1", "unit": "nM"}
    ]},
    {"smiles": "O=C(NC1CC1)c1ccccc1Sc1ccc2c(/C=C/c3ccc(CN4CCCC4)cn3)n[nH]c2c1", "note": "[Compound I-41, N-cyclopropyl-2-({3-[(E)-2-{5-[(pyrrolidin-1-yl)methyl]pyridin-2-yl}vinyl]-1H-indazol-6-yl}thio)benzamide]", "values": [
      {"measurement": "fraction unbound at 2 h, 2 μM", "setting": "melanin", "value": "> 0.05"},
      {"measurement": "IC50", "setting": "[1]", "value": "≤ 1", "unit": "nM"},
      {"measurement": "IC50", "setting": "EGFR", "value": "6000 to 60000", "unit": "nM"},
      {"measurement": "IC50", "setting": "KDR (VEGFR2)", "value": "≤ 1", "unit": "nM"}
    ]},
    {"smiles": "CNC(=O)c1ccccc1Sc1ccc2c(/C=C/c3ccc(CCN4CCCC4)cn3)n[nH]c2c1", "note": "[Compound I-107, N-methyl-2-({3-[(E)-2-{5-[2-(pyrrolidin-1-yl)ethyl]pyridin-2-yl}vinyl]-1H-indazol-6-yl}thio)benzamide]", "values": [
      {"measurement": "fraction unbound at 2 h, 2 μM", "setting": "melanin", "value": "0.01 to 0.05"},
      {"measurement": "IC50", "setting": "[1]", "value": "≤ 1", "unit": "nM"},
      {"measurement": "IC50", "setting": "EGFR", "value": "6000 to 60000", "unit": "nM"},
      {"measurement": "IC50", "setting": "KDR (VEGFR2)", "value": "1 to 10", "unit": "nM"}
    ]},
    {"smiles": "CCN(CC)Cc1ccc(/C=C/c2n[nH]c3cc(Sc4ccccc4C(=O)NCC(F)(F)F)ccc23)nc1", "note": "[Compound I-100, 2-({3-[(E)-2-{5-[(diethylamino)methyl]pyridin-2-yl}vinyl]-1H-indazol-6-yl}thio)-N-(2,2,2-trifluoroethyl)benzamide]", "values": [
      {"measurement": "fraction unbound at 2 h, 2 μM", "setting": "melanin", "value": "> 0.05"},
      {"measurement": "IC50", "setting": "[1]", "value": "≤ 1", "unit": "nM"},
      {"measurement": "IC50", "setting": "EGFR", "value": "6000 to 60000", "unit": "nM"},
      {"measurement": "IC50", "setting": "KDR (VEGFR2)", "value": "1 to 10", "unit": "nM"}
    ]},
    {"smiles": "O=C(NC1CC1)c1ccccc1Sc1ccc2c(/C=C/c3cc(OCCN4CCCC4)ccn3)n[nH]c2c1", "note": "[Compound I-110, N-cyclopropyl-2-({3-[(E)-2-{4-[2-(pyrrolidin-1-yl)ethoxy]pyridin-2-yl}vinyl]-1H-indazol-6-yl}thio)benzamide]", "values": [
      {"measurement": "IC50", "setting": "[1]", "value": "1 to 5", "unit": "nM"},
      {"measurement": "IC50", "setting": "EGFR", "value": "6000 to 60000", "unit": "nM"},
      {"measurement": "IC50", "setting": "KDR (VEGFR2)", "value": "1 to 10", "unit": "nM"}
    ]},
    {"smiles": "CCNC(=O)c1cccc(F)c1Sc1ccc2c(/C=C/c3cccc(CN4CCCC4)n3)n[nH]c2c1", "note": "[Compound I-113, N-ethyl-3-fluoro-2-({3-[(E)-2-{6-[(pyrrolidin-1-yl)methyl]pyridin-2-yl}vinyl]-1H-indazol-6-yl}thio)benzamide]", "values": [
      {"measurement": "IC50", "setting": "[1]", "value": "> 5", "unit": "nM"},
      {"measurement": "IC50", "setting": "EGFR", "value": "6000 to 60000", "unit": "nM"},
      {"measurement": "IC50", "setting": "KDR (VEGFR2)", "value": "> 100", "unit": "nM"}
    ]}
  ]
}
